Patent US11981643B1, “Oxoimidazolidine derivatives as anti-tubercular agents” (priority 2023, dated 2024)
In brackets after ≈: the same amount, converted by molar mass. Read-outs that look alike come from different tables or passages of the source.

Assays:
[1] = system: Mycobacterium tuberculosis H37Rv; assay: Resazurin Microplate Assay (REMA), anti-tubercular activity, H37Rv strain; assay type: cell-based; conditions: 192 h, read-out: Anti-tubercular activity against Mycobacterium tuberculosis, H37Rv (minimum inhibitory concentration, MIC)
[2] = H37Rv strain, ATCC: 25177, REMA, 8 days incubation at 37° C.

Row | Compound | melting point | MIC [1, 2] | MIC ([1]; H37RV)
1 | CN1/C(=C\c2ccc([N+](=O)[O-])cc2)C(=O)N/C1=N\C(=O)Nc1ccccc1F | 150 to 152 °C |  | 
2 | Cc1ccc(/C=C2/C(=O)N/C(=N\C(=O)Nc3ccccc3F)N2C)o1 | 196 to 198 °C |  | 
3 | CN1/C(=C\c2ccc([N+](=O)[O-])cc2)C(=O)N/C1=N\C(=O)Nc1cccc(F)c1 | 144 to 146 °C |  | 
4 | Cc1ccc(/C=C2/C(=O)N/C(=N\C(=O)Nc3cccc(F)c3)N2C)o1 | 188 to 190 °C |  | 
5 | CN1/C(=C\c2ccc([N+](=O)[O-])cc2)C(=O)N/C1=N\C(=O)Nc1ccc(F)cc1 | 156 to 158 °C |  | 
6 | Cc1ccc(/C=C2/C(=O)N/C(=N\C(=O)Nc3ccc(F)cc3)N2C)o1 | 186 to 188 °C |  | 
7 | CN1/C(=C\c2ccc(Br)o2)C(=O)N/C1=N\C(=O)Nc1ccc(Cl)cc1Cl | 198 to 200 °C |  | 
8 | CN1/C(=C\c2ccc(-c3ccccc3[N+](=O)[O-])o2)C(=O)N/C1=N\C(=O)Nc1ccc(Cl)cc1Cl | 206 to 208 °C |  | 
9 | Cc1ccc(/C=C2/C(=O)N/C(=N\C(=S)Nc3cccc(Cl)c3)N2C)o1 | 158 to 160 °C |  | 
10 | CN1/C(=C\c2ccc(Br)o2)C(=O)N/C1=N\C(=S)Nc1cccc(Cl)c1 | 140 to 142 °C |  | 
11 | Cc1ccc(/C=C2/C(=O)N/C(=N\C(=S)Nc3ccc(F)cc3)N2C)o1 | 146 to 148 °C |  | 
12 | CN1C(=Cc2ccc([N+](=O)[O-])cc2)C(=O)N/C1=N\C(=S)Nc1cccc(Cl)c1 (stereo in doubt) [Compound 4q, 1-(3-Chlorophenyl)-3-[(2E,5Z)-1-methyl-5-(4-nitrobenzylidene)-4-oxoimidazolidin-2-ylidene]thiourea] | 166 to 168 °C | 8 µg/mL (≈ 19.2 µM) | 
13 | CN1C(=Cc2ccc(-c3ccccc3[N+](=O)[O-])o2)C(=O)N/C1=N\C(=S)Nc1ccc(F)cc1 (stereo in doubt) [Compound 4v, 1-(4-Fluorophenyl)-3-[(2E,5Z)-1-methyl-5-{[5-(2-nitrophenyl)furan-2-yl]methylidene}-4-oxoimidazolidin-2-ylidene]thiourea] | 158 to 160 °C | 16 µg/mL (≈ 34.4 µM) | 
14 | CN1/C(=C\c2ccc(Br)o2)C(=O)N/C1=N\C(=O)Nc1cccc(F)c1 [Compound 4g, 1-{(2E,5Z)-5-[(5-Bromofuran-2-yl)methylidene]-1-methyl-4-oxoimidazolidin-2-ylidene}-3-(3-fluorophenyl)urea] | 196 to 198 °C |  | 8 µg/mL (≈ 19.6 µM)
